Experimental findings from patent US7807877B2, “Genetic sequences having methyltransferase activity and uses therefor” (International Flower Developments Pty. Ltd., priority 2002, dated 2010) are described below.

Data set [1] deals with Petunia FMT (E20). The experiment in a line: HPLC assay of methyltransferase activity, E. coli extract containing pCGP3086. Type of data set: biochemical, Petunia hybrida. The note with it: for product of flavonoid methyltransferase activity with the substrate: Petunia FMT (E20) in pCGP3086, to a lesser degree malvidin; for % of anthocyanidin detected cya / % of anthocyanidin detected del / % of anthocyanidin detected mal / % of anthocyanidin detected peo / % of anthocyanidin detected pet: pCGP3086 (PFMT), percentage of total anthocyanidins. The protocol:
(§1) The assay reactions were incubated at 30° C. for 30 minutes. Fifty microlitres of a chloroform mix (CHCl3:methanol/1% HCl, 2:1) was added and the mixture was then vortexed to stop the reactions. The phases were separated by centrifugation at 13,000 rpm for 5 minutes and 50 μL of the upper phase was transferred into a clean tube and the contents subsequently hydrolysed by the addition of 12.5 μL of 10M HCl. The tube was then placed in a boiling waterbath for 30 minutes and the contents subsequently desiccated under vacuum. The residue was resuspended in 2-3 μL of methanol/1% HCl and spotted onto a TLC plate alongside standard samples of petunidin, malvidin and delphinidin. The anthocyanidins were separated in a Forestal system (HOAc:water:HCl; 30:10:3) (Markham, Techniques of flavonoid identification, Academic Press, London, 1982) and the TLC was exposed to an autoradiographic film (Kodak) for 16 hours at −70° C.
(§2) Anthocyanidins in the reaction mixture were analysed by HPLC via gradient elution using gradient conditions of 50% B to 60% B over 10 minutes, then 60% B for 10 minutes and finally 60% B to 100% B over 5 minutes where solvent A consisted of TFA:H2O (5:995) and solvent B consisted of acetonitrile:TFA:H2O (500:5:495). An Asahi Pac ODP-50 cartridge column (250 mm×4.6 mm ID) was used for the reversed phase chromatographic separations. […].
(§3) The enzyme activities of the peptides encoded by Petunia and Torenia FMT cDNA clones in pCGP3086 and pCGP3090, respectively were further assessed using the substrates delphinidin 3-glucoside and delphinidin 3-rutinoside and delphinidin 3,5-diglucoside under assay conditions as previously described (Table 15, Example 9) except that the ^14C-labelled SAM was replaced with non radioactive SAM at 2 mg/mL and the substrates (delphinidin 3-glucoside and delphinidin 3-rutinoside and delphinidin 3,5-diglucoside) at 2 mg/mL.

For data set [2], the system named is Petunia FMT (E20). Kind of data set: Methyltransferase assay (14C-SAM, TLC) of crude homogenate of E. coli containing pCGP3086. Type of data set: biochemical, Petunia hybrida. Also noted: key to Petunidin (product on TLC) / Malvidin (product on TLC): yes = detection of product on TLC; no = no reaction observed as determined by absence of product. The protocol:
10 mLs of LB containing ampicillin at 100 μg/mL and kanamycin at 25 μg/mL. (LB/Amp100+Kan25) were inoculated with a single colony of pCGP3086 or pQE30 in M15 (pREP4) cells. […] IPTG was then added to a final concentration of 1 mM and the culture was further incubated at 30° C. with shaking for 8 hours. The cells were pelleted by centrifugation at 3500 rpm for 10 minutes at 4° C. The pellet was resuspended in 1 mL of 0.1 M NaPi, pH 7.5, 4 mM MgCl2. […] The mixture was then sonicated for two bursts of 10 seconds at output 2-3 and then incubated on ice for 30 minutes. The cell debris was pelleted by centrifugation at 14,000 rpm for 20 minutes at 4° C. The supernatant was passed through a NAP-10 column (Pharmacia) and 1.5 mL of the sample collected in 0.1 M NaPi, pH 7.5, 4 mM MgCl2. […] (1983), supra. Methyltransferase assays were set up according to Table 10 in a total reaction volume of 50 μL. […] The assay reactions were incubated at 30° C. for 30 minutes. Fifty microlitres of a chloroform mix (CHCl3:methanol/1% HCl, 2:1) was added and the mixture was then vortexed to stop the reactions. […] The tube was then placed in a boiling waterbath for 30 minutes and the contents subsequently desiccated under vacuum.

Data set [3] has as its system Torenia FMT (TFMT). The experiment in a line: HPLC assay of methyltransferase activity, E. coli extract containing pCGP3090. In kind it is biochemical, Torenia hybrida. The note with it: for product of flavonoid methyltransferase activity with the substrate: Torenia FMT in pCGP3090, to a lesser degree petunidin; for % of anthocyanidin detected cya / % of anthocyanidin detected del / % of anthocyanidin detected mal / % of anthocyanidin detected peo / % of anthocyanidin detected pet: pCGP3090 (TFMT), percentage of total anthocyanidins. The protocol: as §1, §2, §3

The nature of data set [4]: Reconstruction experiments: anthocyanins added to petal juice of Medeo roses. In kind it is physicochemical, Rosa hybrida. The protocol: The rose cultivar Medeo generally produces cream-colored to pale apricot flowers (RHSCC 158C to 159A). […] The estimated vacuolar pH of Medeo petals is around 4.6. The petal juice of Medeo roses was extracted by grinding one petal with 50 μL of water using a mortar and pestle. The petal juice was collected and mixed with 10-20 μL of 1-2 mg/g delphinidin 3-glucoside, delphinidin 3,5-diglucoside and malvidin 3,5-diglucoside. The colors observed were described according to the Royal Horticultural Society Color Charts (RHSCC) (The Royal Horticultural Society, London) (Table 8).

Data set [5] concerns rose petals. Kind of data set: Incubation of excised rose petal segments with precursors or end products. The note with it: around 16 hours; for Color at cut edge after incubation in DHM: around 23° C.; for Color at cut edge upon production of delphinidin: incubation in dihydromyricetin 1-2 mg/mL. Type of data set: cell-based, Rosa hybrida. The protocol: To determine whether rose petals contained the enzymes necessary for conversion of dihydromyricetin to delphinidin, precursor-feeding experiments with dihydromyricetin were initiated.
Petal segments of a selection of commercial cultivars of roses (Toplesse, Lambada, Medeo, Pamela, Sonia, Oceana, Mystique) were placed in solutions of 1-2 mg/mL dihydromyrectin or water only and incubated for around 16 hours in a growth room at a temperature of around 23° C. Pink/purple colors were observed near the cut edges of the petals (Table 6).
Petal segments of roses were placed in solutions of 1-2 mg/mL malvidin 3,5-diglucoside, 1-2 mg/mL dihydromyrectin or water only and incubated for around 16 hours in a growth room at a temperature of around 23° C. The production of colors in the purple range were observed near the cut edges of the petals upon incubation with dihydromyrectin or malvidin 3,5-diglucoside (Table 7).

Setting [6] is: pCGP3086, substrate 2 mg/mL, SAM 2 mg/mL, duplicate a/b.
Where [7] appears, read: pCGP3086 crude homogenate + 14C-SAM (Table 16, positive control).
Where [8] appears, read: pCGP3086 crude homogenate + 14C-SAM, 30° C., 30 minutes (Table 11).
The mark [9] stands for this setting: pCGP3090, substrate 2 mg/mL, SAM 2 mg/mL, duplicate a/b.
Setting [10] is: duplicate a/b, listed as D3, 5G.
The mark [11] stands for this setting: pCGP3090, substrate 2 mg/mL, SAM 2 mg/mL, duplicate a/b, listed as D3, 5G.
Where [12] appears, read: rose cultivar Lambada (orange petal), 1-2 mg/mL.
Where [13] appears, read: rose cultivar Toplesse (pink petal), 1-2 mg/mL.

Where “and” joins values, the source holds several entries; their conditions need not be identical. Identical values can stand only once.

For the compound `C[C@@H]1O[C@@H](OC[C@H]2O[C@@H](Oc3cc4c(O)cc(O)cc4[o+]c3-c3cc(O)c(O)c(O)c3)[C@H](O)[C@@H](O)[C@@H]2O)[C@H](O)[C@H](O)[C@H]1O` [D3R, delphinidin 3-rutinoside], in data set [1], the “product of flavonoid methyltransferase activity with the substrate” value (“product … with the substrate” below) is reported as “predominantly petunidin”. Also, in data set [1] (pCGP3086), the “Predominant FMT Activity” value is reported as 3′FMT. In addition, in data set [1] (duplicate a/b), the “% of anthocyanidin detected cya” value is 2.5%; the “% of anthocyanidin detected del” value is 21.2% and 21.7%; the “% of anthocyanidin detected mal” value is 16.6% and 17.4%; the “% of anthocyanidin detected peo” value is 1.2% and 1.1%. Besides, the “% of anthocyanidin detected pet” value in data set [1] (duplicate a/b) was 58.5% and 57.4%. Also, in data set [1] (setting [6]), the “Anthocyanidins (mg/g) Cya” value was 0.4 mg/g and 0.5 mg/g; the “Anthocyanidins (mg/g) Del” value was 3.7 mg/g and 4.5 mg/g; the “Anthocyanidins (mg/g) Mal” value was 2.9 mg/g and 3.6 mg/g; the “Anthocyanidins (mg/g) Peo” value came to 0.2 mg/g. In addition, the “Anthocyanidins (mg/g) Pet” value in data set [1] (setting [6]) is 10.2 mg/g and 11.9 mg/g. The “Petunidin and malvidin, the methylated derivatives of delphinidin, in assay reactions” value in data set [2] (crude homogenates from pCGP3086 cells, 14C-SAM) was “detected”. In data set [2] (setting [7]), the “Malvidin (product on TLC)” value was “yes” and the “Petunidin (product on TLC)” value is on record as “yes”. Further, in data set [2] (setting [8]), the “Malvidin (product on TLC)” value was “yes” and the “Petunidin (product on TLC)” value is recorded as “yes”. Moreover, in data set [3], the “product … with the substrate” value is recorded as “predominantly malvidin”. In addition, the “Predominant FMT Activity” value in data set [3] (pCGP3090) was 3′5′FMT. For the same compound, in data set [3] (duplicate a/b), the “% of anthocyanidin detected cya” value turned out to be 0.0%; the “% of anthocyanidin detected del” value is 13.2% and 14.6%; the “% of anthocyanidin detected mal” value is 80.9% and 79.1%; the “% of anthocyanidin detected peo” value was found to be 1.9%. The “% of anthocyanidin detected pet” value in data set [3] (duplicate a/b) was 4.0% and 4.3%. In data set [3] (setting [9]), the “Anthocyanidins (mg/g) Cya” value is recorded as 0 mg/g; the “Anthocyanidins (mg/g) Del” value is 2.5 mg/g and 2.8 mg/g; the “Anthocyanidins (mg/g) Mal” value is 15.6 mg/g and 15.1 mg/g; the “Anthocyanidins (mg/g) Peo” value amounted to 0.4 mg/g. In data set [3] (setting [9]), the “Anthocyanidins (mg/g) Pet” value came to 0.8 mg/g.

With `OC[C@H]1O[C@@H](Oc2cc3c(O[C@@H]4O[C@H](CO)[C@@H](O)[C@H](O)[C@H]4O)cc(O)cc3[o+]c2-c2cc(O)c(O)c(O)c2)[C@H](O)[C@@H](O)[C@@H]1O` [D35G, delphinidin 3,5-diglucoside], the “product … with the substrate” value is reported as “predominantly petunidin” in data set [1] and “predominantly malvidin” in data set [3]. Further, the results for the “Predominant FMT Activity” value in data set [1] (pCGP3086) and in data set [3] (pCGP3090) were 3′FMT and 3′5′FMT, respectively. The “% of anthocyanidin detected peo” value in data set [1] (duplicate a/b) and in data set [3] (duplicate a/b) was 0.0% in each case. Besides, the “% of anthocyanidin detected cya” value in data set [1] (setting [10]) is 0.0% and 2.2%; in data set [3] (duplicate a/b) it was 0.0%. The “% of anthocyanidin detected del” value in data set [1] (setting [10]) was 45.6% and 55.9%; in data set [3] (setting [10]), 22.9% and 28.9%. For the same compound, the “% of anthocyanidin detected mal” value was 11.0% and 6.0% in data set [1] (setting [10]); 70.0% and 66.9% in data set [3] (setting [10]). Besides, the “% of anthocyanidin detected pet” value in data set [1] (setting [10]) is 43.4% and 35.9%; in data set [3] (setting [10]) it was 7.1% and 4.3%. The “Anthocyanidins (mg/g) Peo” value in data set [1] (setting [6]) and in data set [3] (setting [9]) was 0 mg/g throughout. Further, the “Anthocyanidins (mg/g) Mal” value was 0.7 mg/g and 1.1 mg/g in data set [1] (pCGP3086, substrate 2 mg/mL, SAM 2 mg/mL, duplicate a/b, listed as D3, 5G); 7.3 mg/g and 12.4 mg/g in data set [3] (setting [11]). For the same compound, the COLOR result in data set [4] (pH 4.6) and in data set [4] (pH 4.9) was “violet” in each case. Also, the “RHSCC#” value in data set [4] (pH 4.6) and in data set [4] (pH 4.9) was 88A in each case. Also, the “Anthocyanidins (mg/g) Cya” value in data set [3] (setting [9]) is reported as 0 mg/g. Also, the “Anthocyanidins (mg/g) Pet” value in data set [3] (setting [11]) is 0.7 mg/g and 0.8 mg/g.

For `O=C1c2c(O)cc(O)cc2O[C@H](c2cc(O)c(O)c(O)c2)[C@H]1O` [DHM, dihydromyricetin], in data set [5] (petal segments of commercial rose cultivars, 1-2 mg/mL), the “TLC analysis of the anthocyanidins in the pink/purple segments” value is recorded as “production of delphinidin”. Further, the “Color at cut edge after incubation in DHM” value in data set [5] (setting [12]) was “pink/purple”; in data set [5] (rose cultivar Medeo (pale apricot petal), 1-2 mg/mL) it was “pink/purple”; in data set [5] (rose cultivar Mystique (apricot petal), 1-2 mg/mL) it was “pink/purple”; in data set [5] (rose cultivar Oceana (cream petal), 1-2 mg/mL), “pink/purple”; in data set [5] (rose cultivar Pamela (white/pale pink petal), 1-2 mg/mL), “pink/purple”; in data set [5] (rose cultivar Sonia (apricot/pink petal), 1-2 mg/mL) it was “pink/purple”. For the same compound, in data set [5] (setting [13]), the “Color at cut edge after incubation in DHM” value is “pink/purple”. Moreover, the “Color at cut edge upon production of delphinidin” value in data set [5] (rose cultivar Lambada (orange petal)) and in data set [5] (rose cultivar Toplesse (pink petal)) was “pink/purple” throughout.

Turning to `COc1cc(-c2[o+]c3cc(O)cc(O[C@@H]4O[C@H](CO)[C@@H](O)[C@H](O)[C@H]4O)c3cc2O[C@@H]2O[C@H](CO)[C@@H](O)[C@H](O)[C@H]2O)cc(OC)c1O` [M35G, malvidin 3,5-diglucoside], the “Color at cut edge after incubation with malvidin” value in data set [5] (setting [12]) and in data set [5] (setting [13]) was “violet/purple” in each case. The COLOR entry in data set [4] (pH 4.6) and in data set [4] (pH 4.9) was “violet-blue” each time. In addition, in data set [4] (pH 4.9), the “RHSCC#” value turned out to be 90A.
